Data on two molecules can be found in patent US20120157396A1, “PYRAZINAMIDE FOR IMMUNOSTIMULATION AND THE TREATMENT OF LEISHMANIASES” (priority 2009, published 2012).

The subject of series [1] is L. major. It is filed as in vivo, C57BL/6 mice. How it is done:
Mouse Model of CL. To assess the in vivo efficacy of PZA in a relevant in vivo model of cutaneous leishmaniasis, C57BL/6 mice were intradermally infected with 5×10^5 L. major parasites per ear (n=6 mice, 12 ears). One day after infection, mice were treated orally with PZA at several concentrations (900-150 mg/kg) for four weeks, five days a week. […] Parasite burden in ears was determined at 5 weeks post infection in all experimental groups.
Mice (n=6) were anesthetized with isoflurane (Abbott Laboratories, Chicago, Ill.) and vaccinated intradermally in both ears with 5×10^5 L. major promastigotes in a volume of 10 μl using a 27½ G needle. PZA was diluted in water and administered by oral gavage in a 0.2 ml volume. A control group was treated with water containing DMSO (3.8%). The timetable for the experiment was as follows: day 0, infection; days 1-5, 8-12, 15-19 and 22-26, drug administration, and day 70, sacrifice. Lesion size was monitored 1-2 times per week by measuring the lesion diameter with a vernier caliper. Mice were sacrificed by CO2 inhalation.
Parasite loads in the ears were determined as previously described. Briefly, the ventral and dorsal sheets of the infected ears were separated and deposited in RPMI containing 100 U/ml penicillin/100 μg/ml streptomycin and Liberase CI enzyme blend (Boehringer Mannheim, 0.5 mg/ml). Ears were incubated for 60 min at 37° C. The sheets were dissociated using a handheld tissue homogenizer. The homogenates were filtered using a 70 μm an cell strainer (BD Falcon, San Jose, Calif.) and serially diluted in a 96-well flat bottom microtiter plate containing biphasic medium prepared using 50 μl NNN medium containing 20% of defibrinated rabbit blood overlaid with 100 μl medium 199. The number of viable parasites in each ear was estimated from the highest dilution at which promastigotes could be grown out after 7 days of incubation at 26° C.

The test system of series [2] is J774 cells. Description: Cytokine (ELISA) and nitric oxide (Griess test) production in J774 cells. The conditions noted are these: for production of cytokines (IL-12, TNF-α) and NO release: J774 cells, irrespective of infection (FIG. 14). It is filed as cell-based, murine. How it is done: The ability of J774 cells to produce cytokines in response to infection and/or treatment was also determined. Cells were infected, treated or activated as described above. The amount of the proinflammatory cytokines IL-12 and TNF-α (implicated in Thl response and parasite killing), as well as the repressive cytokine IL-10, was determined by ELISA in the culture supernatants. The level of nitric oxide was also determined in the same supernatants. PZA treatment alone increased cytokine production, especially IL-12 and TNF-α and NO release. […] Finally, to test the specificity of the immune activation by PZA, we determined the effect that amphotericin B treatment had on activation and cytokine expression by J774 cells.
J774 cells or bone marrow-derived cells were seeded onto 24-well plates at a concentration of 5×10^5 cells/ml. Twenty-four hours later, PZA was added to the wells at different concentrations in the absence or presence of L. major (1:5 parasite ratio). In some experiments, J774 cells were treated with amphotericin B (0.1, 0.5, or 1 μg/ml). Two control groups were also included in this experiment: a positive control of activation consisting in a group of uninfected cells treated with 100 ng/ml LPS and 10 IU IFN-γ as a positive control of activation, and a negative control of activation, consisting in uninfected, untreated cells. Cell cultures were maintained overnight, and then cultured for an additional 6 h with brefeldin A (10 μg/ml), harvested by scraping and fixed in 2% paraformaldehyde. Prior to staining, cells were incubated with an anti-Fc III/II receptor and 10% normal mouse serum (NMS) in PBS containing 0.1% BSA, 0.01% NaN3. Cells were permeabilized with saponin and stained for the surface markers CD80 (clone 16-10A1), CD86 (clone GL1), MHCI (clone 28-14-8), MHCII (clone M5/114.15.2) and for the cytokines IL-12p40/p70 (clone C17.8) and IL-10 (clone JESS-16E3). Incubations were carried out for 30 min on ice. All antibodies were purchased from BD Biosciences or eBioscience. For each sample, at least 50,000 cells were analyzed. The data were collected and analyzed using CELLQuest software and a FACScalibur flow cytometer (Becton Dickinson, San Jose, Calif.).
A general note: ELISA stands for enzyme-linked immunosorbent assay.

For series [3], the system named is splenocytes. The series can be described thus: Lymphoproliferative response of splenocytes from L. donovani-infected treated mice. The following applies: PZA-treated mice, dose dependent. It is filed as cell-based, C57BL/6 mice. How it is done: FIG. 5. PZA increases proliferation in treated splenocytes. Positive proliferation (measured as loss of CFSE staining at day 5) at 3 wk post infection in CFSE-stained splenocytes from C75BL/6 mice infected with L. donovani and treated with drug vehicle (3.8% DMSO, control) or increasing concentrations of PZA (n=3±SD), following in vitro restimulation with 25 μg/ml leishmanial antigen or 2 μg/ml concanavalin A.
VL typically induces T cell anergy toward leishmanial antigens.

Series [4] deals with dendritic cells lacking TLR-2 and -4. Description: Activation of bone marrow-derived dendritic cells from TLR-2/-4 double knock out mice. It is filed as cell-based. How it is done: FIG. 11. A. The immunostimulatory effect of PZA is independent of TLR engagement. Mean fluorescence values for the expression of CD80, CD86, MHC Class I and MHC Class II and B. IL-12, IL-10 and iNOS expression determined by flow cytometry in bone marrow-derived dendritic cells from TLR-2/-4 double knock out mice, infected or not with L. major, and treated with 10 and 100 μM PZA. Uninfected cells were treated with 10 U IFN-γ/100 ng/ml LPS as a positive control of activation. Unstimulated, untreated cells are also shown. Data are expressed as mean±standard deviation of n=3 determinations. *: Statistically significant P≦0.03; **: Statistically significant P≦0.005; ***: Statistically significant, P≦0.0001 when compared to the group infected with L. major and untreated.
In this experiment, we treated the dendritic cells as described above, in the presence or absence of L. major infection. Again as a positive control, cells were primed with IFN-γ and LPS. […] In the same way, the expression of IL-12, IL-10 and iNOS was increased in treated cells, irrespective of infection (FIG. 11B).

[5] abbreviates: L. major-infected J774, PZA 10 μM.
Setting [6] is: L. major-infected J774, PZA 100 μM.

On to `NC(=O)c1cnc(Cl)cn1` [5-Cl PZA, 5-chloro pyrazinamide], for which, in series [1] (5-Cl PZA oral, 150 mg/kg), the “average lesion size compared to untreated controls” value is listed as “significant reduction in average lesion size”. In addition, in series [2] (IL-2 production (FIG. 9B), also in Leishmania-infected macrophages), the “proinflammatory cytokines stimulated relative to PZA” value turned out to be 2 ×. Also, the “production of cytokines (IL-12, TNF-α) and NO release” value in series [2] was “increased”.

`NC(=O)c1cnccn1` [PZA, pyrazinamide]: in series [1] (12 weeks post infection), the “parasite burden in ears after healing” value is “comparable among all experimental groups”. Also, in series [1] (PZA oral 900-150 mg/kg, four weeks, five days a week, all time points), the “average lesion size compared with untreated mice” value is on record as “significant (P=0.0001) reduction of the average lesion size”. The “decrease of parasite burden in infected ears compared to untreated control” value in series [1] (PZA oral, week 6 post infection) is on record as 100 fold. The “body weight of experimental animals” value in series [1] (mouse, in vivo) is on record as “no significant differences in body weight”. The “proliferation of splenocytes to leishmanial antigens and concanavalin A” value in series [3] is listed as “recovered their ability to proliferate”. In series [2], the “production of cytokines (IL-12, TNF-α) and NO release” value is recorded as “increased”. Besides, the IL-10 production came to 109 ± 39 pg/mL in series [2] (setting [5]); 112 ± 44 pg/mL in series [2] (setting [6]); 112 ± 45 pg/mL in series [2] (uninfected J774, PZA 10 μM); 145 ± 56 pg/mL in series [2] (uninfected J774, PZA 100 μM). For the same molecule, the IL-12 production in series [2] (setting [5]) came to 253 ± 68 pg/mL; in series [2] (setting [6]) it was 299 ± 55 pg/mL; in series [2] (uninfected J774, PZA 10 μM) it was 178 ± 38 pg/mL; in series [2] (uninfected J774, PZA 100 μM), 359 ± 65 pg/mL. Also, the “Nitric Oxide production” value in series [2] (setting [5]) amounted to 289 ± 55 pg/mL; in series [2] (setting [6]) it was 498 ± 74 pg/mL; in series [2] (uninfected J774, PZA 10 μM) it was 254 ± 44 pg/mL; in series [2] (uninfected J774, PZA 100 μM), 476 ± 52 pg/mL. For the same molecule, the TNF-α production was determined as 259 ± 163 pg/mL in series [2] (setting [5]); 489 ± 154 pg/mL in series [2] (setting [6]); 245 ± 159 pg/mL in series [2] (uninfected J774, PZA 10 μM); 377 ± 105 pg/mL in series [2] (uninfected J774, PZA 100 μM). Also, the “expression of activation markers and MHC Class molecules” value in series [4] (10 and 100 μM PZA, dose-dependent, TLR-2/-4 double knock out dendritic cells) was “increased expression of activation markers and MHC Class molecules”. Also, the “expression of IL-12, IL-10 and iNOS” value in series [4] (PZA-treated cells, irrespective of infection) was “increased”.
